For data set [1] the following is noted: cited from earlier work.
Data set [2] concerns marine bacteria strain S27. In words: disc inhibition assay, strain S27. Type of data set: cell-based, Tenacibaculum lutimaris. In outline: (§1)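 50 μg compound/6 mm disc (from 2 mg/ml DMSO stock); DMSO blank disc control. Lawn swabbed on Marine Agar from marine broth culture. Overnight, 35° C, dark. Readout: inhibition zone diameter (calipers), mean of 2 replicates.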
Data set [3] deals with marine bacteria strain S4. Nature of the data set: disc inhibition assay, strain S4. In kind it is cell-based, Bacillus algicola. Conditions: Guptibacillus algicola, S4, 24 h. In outline: as §1
In data set [4] the test system is marine bacteria strain S16. In words: disc inhibition assay, strain S16. Type of data set: cell-based, Pseudoalteromonas piscicida. In short, it runs like this:
as §1

Data set [5] has as its system marine bacteria strain S28. In words: disc inhibition assay, strain S28. Type of data set: cell-based, Arthrobacter protophormial. In outline:
as §1

The test system of data set [6] is marine bacteria strain S3. In words: disc inhibition assay, strain S3. In kind it is cell-based, Erythrobacter aquimaris. In outline: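 Antibacterial susceptibility was measured by agar disc diffusion. Compounds dissolved in DMSO were applied to 6 mm sterile discs and laid on Marine Agar lawns of a Singapore coastal marine bacterium cultured in marine broth. After overnight dark incubation at 35° C, clearing zone diameters were measured with Vernier calipers, and the two replicates were averaged.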

Data set [7] has as its system marine bacteria strain S10. Nature of the data set: disc inhibition assay, strain S10. Type of data set: cell-based, Halobacillus trueperi. As to conditions: Halobacillus trueperi, S10, 24 h. In short, it runs like this:
as §1

The subject of data set [8] is marine bacteria strain S14. In words: disc inhibition assay, strain S14. In kind it is cell-based, Vibrio probioticus.
Data set [9] relates to Escherichia coli (Strain DH5a). In words: disc inhibition assay, REF 2. Type of data set: cell-based.
Data set [10] has as its system marine bacteria strain S30. In words: disc inhibition assay, strain S30. Conditions: Bacillus, S30, 24 h. Type of data set: cell-based, Bacillus borophilicus. In outline: as §1
Data set [11] relates to marine bacteria strain S18. In words: disc inhibition assay, strain S18. In kind it is cell-based, Microbacterium esteraromaticum.
In data set [12] the test system is Pseudomonas aeruginosa (strain LMG 12228; ATCC 15692). In words: disc inhibition assay, REF 3. Type of data set: cell-based.
For data set [13], the system named is marine bacteria strain S17. In words: disc inhibition assay, strain S17. In kind it is cell-based, Gordonia terrae. In outline: as §1
For data set [14], the system named is marine bacteria strain S1. In words: disc inhibition assay, strain S1. In kind it is cell-based, Rhodovulum iodosum. In outline:
as §1

The subject of data set [15] is Escherichia coli (Strain K12; ATCC 15222). In words: disc inhibition assay, REF 1. Type of data set: cell-based.
Data set [16] has as its system marine bacteria strain S9. Nature of the data set: disc inhibition assay, strain S9. Type of data set: cell-based, Bacillus algicola. Conditions: Guptibacillus algicola, S9, 24 h. In short, it runs like this:
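Compounds were dissolved at 2 mg/ml in DMSO (stock) and 50 μg loaded per 6 mm disc, with DMSO-only discs as control. Discs went onto Marine Agar lawns swabbed from marine broth cultures, plates were incubated overnight in the dark at 35° C, and clearing-zone diameter was measured by calipers, averaged over two replicates.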

Data set [17] deals with marine bacteria strain S29. In words: disc inhibition assay, strain S29. Type of data set: cell-based, Bacillus hwajinpoensis. As to conditions: Guptibacillus hwajinpoensis, S29, 24 h. In short, it runs like this: as §1
The test system of data set [18] is Pseudomonas putida (Strain KT2440; BCRC 10459). In words: disc inhibition assay, REF 4. Type of data set: cell-based.

Counter-ions that a name gives are not always drawn.

Take `CN(C)C(=O)C(CCN1CCC(O)(c2ccc(Cl)cc2)CC1)(c1ccccc1)c1ccccc1` [Loperamide hydrochloride]: in data set [1], the solubility in water entry was “slightly soluble”.

Take `CN(C)[C@@H]1C(O)=C(C(N)=O)C(=O)[C@@]2(O)C(O)=C3C(=O)c4c(O)cccc4[C@@](C)(O)[C@H]3C[C@@H]12` [TETR, Tetracycline, reference compound]: the zone of inhibition at 30 µg/disc lay in the range of 2 to 5 mm in data set [2] (Tenacibaculum lutimaris, S27, 24 h, strain 27, 30 ug); 5 to 10 mm in data set [3] (strain 4, 30 ug); 2 to 5 mm in data set [5] (Arthrobacter, S28, 24 h, strain 28, 30 ug); 2 to 5 mm in data set [7] (strain 10, 30 ug); 2 to 5 mm in [8] (Vibrio, S14, 24 h); 2 to 5 mm in data set [10] (strain 30, 30 ug). The zone of inhibition at 30 µg/disc in data set [11] (Microbacterium esteraromaticum, S18, 24 h, strain 18, 30 ug) was 2 to 5 mm; in [16] (strain 9, 30 ug), 5 to 10 mm; in data set [17] (strain 29, 30 ug), 5 to 10 mm. For the same compound, the zone of inhibition entry in data set [2] (strain 27, 5 ug) is listed as “−”; in [4] (strain 16, 5 ug), “−”; in data set [4] (strain 16, 30 ug) it was “−”; in data set [5] (strain 28, 5 ug), “−”; in [6] (strain 3, 5 ug), “−”; in [6] (strain 3, 30 ug), “−”. In addition, the zone of inhibition entry is on record as “−” in data set [8] (strain 14, 5 ug); “+ (2-5 mm zone of inhibition around each disk was observed.)” in data set [9] (REF 2, 5 ug); “++ (5-10 mm zone was observed.)” in data set [9] (REF 2, 30 ug); “−” in data set [11] (strain 18, 5 ug); “+ (2-5 mm zone of inhibition around each disk was observed.)” in [12] (REF 3, 5 ug); “++ (5-10 mm zone was observed.)” in [12] (REF 3, 30 ug). For the same compound, the zone of inhibition result in [13] (strain 17, 5 ug) is reported as “−”; in data set [13] (strain 17, 30 ug) it was “−”; in data set [14] (strain 1, 5 ug), “−”; in data set [14] (strain 1, 30 ug), “−”; in data set [15] (REF 1, 5 ug) it was “+ (2-5 mm zone of inhibition around each disk was observed.)”; in [15] (REF 1, 30 ug), “++ (5-10 mm zone was observed.)”. The zone of inhibition entry in data set [18] (REF 4, 5 ug) is “++ (5-10 mm zone was observed.)”; in data set [18] (REF 4, 30 ug), “++ (5-10 mm zone was observed.)”. Further, the zone of inhibition at 5 µg/disc in data set [3] (strain 4, 5 ug) lay in the range of 2 to 5 mm; in [7] (strain 10, 5 ug), 2 to 5 mm; in [10] (strain 30, 5 ug), 2 to 5 mm; in data set [16] (strain 9, 5 ug), 2 to 5 mm; in data set [17] (strain 29, 5 ug), 2 to 5 mm.

Values taken from patent US20160311788A1, “Antifouling Compounds And Use Thereof” (National University of Singapore, priority 2008, published 2016).
